Data: patent US20240192235A1, “CERAMIDE AND SPINGOMYELIN IN NEUROLOGICAL DISORDERS” (Duke University, priority 2021, published 2024)

Tests used:
[1] = cited from earlier work
SP1 R1 = SP1 R1 (Homo sapiens, UniProt P21453); settings: cited from earlier work
[2] = Fingolimod plasma concentration after oral administration to WT mice (UHPLC, MS-MS); type: in vivo; settings: both sexes, C57BL/6J, mouse, oral 1 mg/kg/day, read-out: Fingolimod levels in plasma
Procedure: To determine if fingolimod (e.g., Gilenya®, Novartis) oral administration achieves appropriate plasma concentration, 8 WT mice at 7 months old (50% females) were treated with fingolimod at 1 mg/kg/day for 4 wks. Plasma samples were collected at two time points (2nd and 4th weeks) after treatment and analyzed by UHPLC and MS-MS. Fingolimod levels in plasma were in ng/mL: 2nd week=8.03±0.24 and 4th week=10.02±0.4.

WT and APP/PS1 mice [3] = test: Novel object recognition (NOR) test; type: in vivo; settings: 1 mg/kg/day for eight weeks
Description: (§1) APPswe/PS1dE9 (referred to as APP/PS1) and C57BI/6J (referred to as WT) mice were purchased from The Jackson Laboratory. The APP/PS1 is a double transgenic mouse expressing a chimeric mouse/human amyloid precursor protein (Mo/HuAPP695swe) and a mutant human presenilin 1 (PS1-dE9), both directed to CNS neurons. 50% of animals used in all experiments were male.
(§2) APP/PS1 mice and their WT littermates were used to examine fingolimod effects in vivo. Fingolimod treatment was provided in drinking water in a dark container and changed every 48 h to provide 1 mg/kg/day.
Mice were habituated to experimental apparatus consisting of a gray rectangular open field (60 cm×50 cm×26 cm) for 5 min in the absence of any objects for 3 days. On the third day, after the habituation trial, mice were placed in the experimental apparatus in the presence of two identical objects and allowed to explore them for 5 min. […] All sessions were recorded using Noldus Media Recorder software. Exploration of the objects was defined as the mice facing and sniffing the objects within 2 cm distance and/or touching them, assessed with ANY-maze software. The ability of the mouse to recognize the novel object (discrimination index) was determined by dividing the mean time exploring the novel object by the mean of the total time exploring the novel and familiar objects during the test session. […]

WT and APP/PS1 mice [4] = test: Barnes Maze task; type: in vivo; settings: 1 mg/kg/day for eight weeks, probe trial
Description: as §1, §2
The behavioral apparatus consisted of a white flat, circular disk with 20 holes around its perimeter. One hole held the entrance to a darkened escape box not visible from the surface of the board, allowing the subject to exit the maze. The escape chamber position remained fixed during all trials. Mice learn the location of the escape hole using spatial reference points that were fixed in relation to the maze (extra-maze cues). The task consisted of one habituation trial on day 1 where the escape hole was presented to the animal, the animal remained in the escape box for 2 min. […] All sessions were recorded using Debut video software and assessed through ANY-maze software. For each trial, several parameters were recorded to assess performance. […] For the probe trial, time spent in the target quadrant and target hole were analyzed. […]

[5] = fingolimod-treated APP/PS1 mice

Chain of SP1 R1 (P21453 whole entry): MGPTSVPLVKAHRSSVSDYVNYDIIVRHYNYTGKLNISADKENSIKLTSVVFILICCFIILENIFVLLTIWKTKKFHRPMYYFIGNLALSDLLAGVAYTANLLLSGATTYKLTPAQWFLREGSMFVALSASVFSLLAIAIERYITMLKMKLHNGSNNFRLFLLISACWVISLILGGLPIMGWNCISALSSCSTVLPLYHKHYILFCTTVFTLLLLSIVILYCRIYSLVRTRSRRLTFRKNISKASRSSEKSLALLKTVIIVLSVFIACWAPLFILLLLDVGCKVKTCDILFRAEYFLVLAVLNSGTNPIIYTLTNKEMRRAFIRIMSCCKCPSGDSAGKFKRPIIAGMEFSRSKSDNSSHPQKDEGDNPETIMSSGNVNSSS

In the case of `CC(C)Oc1ccc(-c2nc(-c3cccc4c3CC[C@@H]4NCCO)no2)cc1C#N` [Ozanimod], the “cognitive processing speed as assessed by the Symbol Digit Modalities Test” value ([1]; compared to IFNβ1a treatment) is listed as “improved” and the “loss of thalamic volume” value ([1]; compared to IFNβ1a treatment) is listed as “slower”.

For `FC(F)(F)c1cccc(-c2noc(-c3cc(-c4ccccc4)c(C(F)(F)F)s3)n2)c1` [SEW2871], the “Aβ mediated behavior abnormalities” value (SP1 R1) is given as “improve” and the tau phosphorylation (SP1 R1) is given as “decrease”.

In the case of `CCc1cc(/C(C)=N/OCc2ccc(C3CCCCC3)c(C(F)(F)F)c2)ccc1CN1CC(C(=O)O)C1` [Siponimod], the “Symbol Digit Modalities Test (SDMT) oral score” value ([1]; compared with placebo, study months 12 and 24) is given as “benefit in favor of Siponimod”, the “Brief Visuospatial Memory Test-Revised” value ([1]; compared with placebo) is given as “no statistically significant differences between groups” and the PASAT score ([1]; compared with placebo) is given as “no statistically significant differences between groups”. For the same molecule, the “low contrast visual acuity test” value ([1]; compared with placebo) was “small benefit in favor of Siponimod”.

For `CCCCCCCCc1ccc(CCC(N)(CO)CO)cc1` [fingolimod], the concentration at 2 weeks ([2]; 2nd week) was 8.03 ± 0.24 ng/mL, the concentration at 4 weeks ([2]; 4th week) was 10 ± 0.4 ng/mL and the “NOR discrimination index (NOR-DI)” value (WT and APP/PS1 mice [3]; [5]) was 0.40±0.13. For the same molecule, the “NOR discrimination index (NOR-DI)” value (WT and APP/PS1 mice [3]; fingolimod-treated WT mice) was 0.47±0.08, the “percentage of time spent in the target quadrant” value (WT and APP/PS1 mice [4]; [5]) was 54.81±9.15% and the “percentage of time spent in the target quadrant” value (WT and APP/PS1 mice [4]; fingolimod-treated WT mice) was 63.46±11.51%.
